Here are results for three molecules from patent US6159501A, “Modified release multiple-units dosage composition for release of opioid compounds” (Nycomed Danmark A/S, priority 1996, dated 2000).

The conditions of data set [1]: cited from earlier work.
Data set [2] is described as follows: Test 3 (PDMO-018): adverse events. The protocol: Volunteers were asked to report any changes in normal health to the investigator. The investigator recorded in the CRFs the event, date and time for onset and cessation, frequency, severity, outcome, causality, classification and any action taken.
Further a urine sample was screened for drug abuse and pregnancy test was performed for female volunteers. If negative drugs of abuse and pregnancy test the volunteers were challenged in the first period only with a direct i.v. injection of about 0.5 ml naloxone 0.4 mg/ml (Narcan®).

Each structure is given as a SMILES string.

Turning to `CN1CC[C@]23c4c5ccc(O)c4O[C@H]2[C@@H](O[C@@H]2O[C@H](C(=O)O)[C@@H](O)[C@H](O)[C@H]2O)C=C[C@H]3[C@H]1C5` [morphine-6-glucuronide], the “half-life, comparison” value in data set [1] (in vivo) is “longer half-life”. For the molecule `CN1CC[C@]23c4c5ccc(O)c4O[C@H]2[C@@H](O)C=C[C@H]3[C@H]1C5` [morphine], the “average duration of action for the first single dose” value in data set [1] (10 mg of oral, i.m. or s.c. morphine) is 4 to 5 h.

For the molecule `O=C1CC[C@@]2(O)[C@H]3Cc4ccc(O)c5c4[C@@]2(CCN3CC2CC2)[C@H]1O5` [naltrexone], the “adverse events (number)” value in data set [2] came to 13 AEs.
